The values below come from PubChem BioAssay AID1645868 (Buhrlage Lab, Dana-Farber Cancer Institute and Novartis …, 2021).

SMILES strings stand for the structures. Activity calls are given as the source filed them.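 Rule for the calls: active = maximal percent inhibition of the deubiquitinase OTUD3 of at least 30% across the tested doses; inactive = the rest.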

The assay deals with OTU domain-containing protein 3 (Homo sapiens) (UniProt Q5T2D3). In words: Validation of screening hits, potency titration, in vitro enzymatic, OTU domain-containing protein 3 DUB inhibitors (AID 1645868). Particulars: purified OTUD3, ubiquitin-rhodamine cleavage fluorescence, 2 h.
Sequence of OTU domain-containing protein 3 (Homo sapiens) (Q5T2D3 whole entry, looked up, the tested form may be a part): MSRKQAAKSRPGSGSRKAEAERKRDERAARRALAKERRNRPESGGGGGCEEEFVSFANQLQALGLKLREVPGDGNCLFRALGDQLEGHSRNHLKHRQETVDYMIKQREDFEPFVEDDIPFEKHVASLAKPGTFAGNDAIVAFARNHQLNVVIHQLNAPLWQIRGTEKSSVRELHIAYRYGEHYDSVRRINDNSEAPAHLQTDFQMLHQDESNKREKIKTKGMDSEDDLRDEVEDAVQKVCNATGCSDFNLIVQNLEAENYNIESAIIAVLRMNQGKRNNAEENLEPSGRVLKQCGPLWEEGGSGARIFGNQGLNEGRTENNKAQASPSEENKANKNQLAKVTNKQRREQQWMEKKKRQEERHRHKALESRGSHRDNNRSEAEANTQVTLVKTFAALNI
Broadly, the IC50 is the concentration at which inhibition is half-maximal. As to `CO[C@H]1/C=C/OC2(C)Oc3c(C)c(O)c4c(c3C2=O)C2(C=C(NC(=O)/C(C)=C\C=C\[C@H](C)[C@H](O)[C@@H](C)[C@@H](O)[C@@H](C)[C@H](OC(C)=O)C1C)C4=O)OCC(=O)O2` (some centres not stated), the IC50 was > 50 µM (inactive). Turning to `Cn1c(=O)cc(SCC(=O)NC2CCN(Cc3ccccc3)CC2)c2ccc(Cl)cc21`, the IC50 was > 50 µM (inactive). `CCOC(=O)[C@@H]1[C@@H](c2ccccc2)CN2CCN(C(=O)c3cnccn3)C[C@H]12`: the IC50 is > 50 µM (inactive).

In the case of `Cc1cccc(COc2ccc(C3SCC(=O)Nc4n[nH]c(C)c43)cc2)c1` (configuration not stated), the IC50 was 15.5 µM. Under `O=C(c1ccsc1)N1CCC2(C1)Nc1cccnc1NC2=NC1CCCC1` (configuration not stated) stands > 50 µM (inactive); under `CCOc1ccc(CCNC(=O)CCC(=O)Nc2ccc3nc(N4CCN(C)CC4)cc(C)c3c2)cc1OCC`, > 50 µM (inactive). Turning to `COc1ccc(-c2nc(Cn3nnc(C(=O)Nc4ccc(C)c(C)c4)c3N)c(C)o2)cc1`, the IC50 was 3.46 µM. Take `COc1ccc(S(=O)(=O)N2CCc3ccccc32)cc1C(=O)Nc1ccc2[nH]c(=O)[nH]c2c1`: the IC50 was 19.5 µM. With `O=C(Nc1cc(F)c2nc(N3CCOCC3)ccc2c1)c1ccc(Br)o1`, the IC50 was > 50 µM (inactive). As for `CSc1nc2ncn(CC(=O)Nc3cccc(Cl)c3)c(=O)c2s1`, the IC50 is > 50 µM (inactive). Consider `COc1ccc(NC(=O)c2nnn(-c3cccc(C)c3)c2C)cc1`, for which the IC50 is > 50 µM (inactive). Under `COc1ccc(Cl)cc1NC(=O)Cn1c(=O)cc(C)c2c(C)nn(-c3ccccc3)c21` stands 44.3 µM; under `Cc1ccc2[nH]c(=O)c(-c3nc4ccc(C)cn4c3NCc3ccc(F)cc3)cc2c1`, 3.37 µM; under `COc1ccc(CCC(=O)Nc2ncc(C)s2)cc1OC`, > 50 µM (inactive). Turning to `Cc1nn(CC(=O)NCc2ccccc2F)c2ccccc12`, the IC50 is > 50 µM (inactive). In the case of `Cc1cc2c(cc1C)NC(CC(=O)Nc1ccc(O)cc1)C(=O)N2` (configuration not stated), the IC50 is 30.8 µM.

Regarding `O=C(CCSc1ccc(Cl)cc1)c1cccs1`, the IC50 is 21.5 µM. Regarding `O=C(Nc1ccc(F)c(Cl)c1)c1ccc(N2CCCCS2(=O)=O)cc1Cl`, the IC50 is > 50 µM (inactive).

`O=C(NCc1cccnc1)c1cnn2c(C(F)(F)F)cc(-c3ccccc3)nc12`: the IC50 is > 50 µM (inactive). The same measure for `O=S(=O)(c1cccc(F)c1)N1CCc2nc3ccccc3n2CC1`: 17.1 µM; for `COc1cccc(N2CCN(C(=O)Nc3ccc4c(c3)NC(=O)CO4)CC2)c1`: 22.4 µM. For `CC1CCN(Cc2nnc(-c3cn(CC(=O)NC4CCCCC4)c4ccccc34)o2)CC1`, the IC50 was > 50 µM (inactive). Under `CCCCc1ccc(-c2cc(C(=O)NCCN3CCOCC3)c3cc(Br)ccc3n2)cc1` stands 23.4 µM. The same measure for `Cc1ccc(-c2nc(N3CCCC(O)C3)ncc2-c2cnccn2)s1` (configuration not stated): > 50 µM (inactive). The same measure for `COc1ccc(-c2nc3n(n2)C(c2cccc(O)c2)C2=C(CCCC2=O)N3)cc1` (configuration not stated): > 50 µM (inactive). As to `COc1ccc(-c2cc(-c3ccc(O)cc3)nc(N)c2C#N)cc1OC`, the IC50 is > 50 µM (inactive). For the compound `Cc1csc2ncc(C(=O)N3CCN(c4ccccc4F)CC3)c(=O)n12`, the IC50 was > 50 µM (inactive). Under `COCCCn1c(C(=O)Nc2ccccc2OC)cc2c(=O)n3ccccc3nc21` stands > 50 µM (inactive); under `COc1cccc(N2CCN(C(=O)c3cc(NC(C)=O)cc4nc(C)ccc34)CC2)c1`, > 50 µM (inactive). Take `Fc1cccc(-n2cc(-c3noc(-c4ccc[nH]4)n3)nn2)c1`: the IC50 was > 50 µM (inactive). The same measure for `Cc1cccc(CNC(=O)C2CCCN(S(=O)(=O)Cc3ccc(F)cc3)C2)c1` (configuration not stated): 41.6 µM. Regarding `Cc1ccc2[nH]c(=O)c(CN(Cc3cccnc3)C(=O)c3cccc(Cl)c3)cc2c1`, the IC50 is > 50 µM (inactive). Under `Cc1ccccc1C(=O)Nc1ccc(Cc2ccc(NC(=O)c3ccccc3C)c(O)c2)cc1O` stands > 50 µM (inactive); under `O=C(Nc1ccccc1)c1nc2c(s1)CCN(C(=O)c1ccccc1)CC2`, > 50 µM (inactive); under `CC(C)CC(NC(=O)c1ccc(Cl)cc1Cl)c1nc2ccccc2[nH]1` (configuration not stated), > 50 µM (inactive). On to `CC(C)=CCCC1(C)OC2=C(C(=O)c3cc(O)cc(O)c3C2=O)[C@H]2C=C(C)CC[C@H]21` (some centres not stated), for which the IC50 was > 50 µM (inactive). The same measure for `O=C(COc1ccc2c(-c3ccccc3)cc(=O)oc2c1)Nc1cccnc1`: 21.5 µM.

With `COC(=O)C1C(c2ccc(Cl)cc2Cl)C2(C(=O)c3ccccc3C2=O)C2C=Cc3ccccc3N12` (configuration not stated), the IC50 was > 50 µM (inactive). Under `Cc1c(-c2nn3c(-c4ccco4)nnc3s2)cccc1[N+](=O)[O-]` stands > 5 µM (inactive); under `O=C(O)Cc1ccc(Nc2nc3ccccc3n3nnnc23)cc1`, > 50 µM (inactive). The same measure for `Cc1cccc(-c2noc(CCn3c(=O)[nH]c4ccccc4c3=O)n2)c1`: > 50 µM (inactive); for `COc1ccc(CCNC(=O)c2noc3c2CCc2sccc2-3)cc1OC`: > 50 µM (inactive). Take `CC(=O)c1cccc(NC(=O)c2ccc3[nH]c4c(c3c2)CC(C)CC4)c1` (configuration not stated): the IC50 was > 50 µM (inactive).

Turning to `Cc1ccc(-c2nc(NC(=O)COc3ccc(Cl)cc3)no2)cc1`, the 50% inhibitory concentration (IC50) was 20.6 µM.

`CC(=O)Nc1cc2cc(-n3cccc3)ccc2oc1=O`: the IC50 is > 50 µM (inactive). The same measure for `CSc1nc2ncc3c(=O)n(CCc4ccccc4)ccc3n2n1`: > 50 µM (inactive). The same measure for `COC1=CC(=O)c2c(O)c3c(c(C)c2C1=O)C[C@@]1(O)[C@H](O[C@H]2CC[C@H](O[C@H]4C[C@@](C)(O)[C@H](OC(=O)c5c(C)ccc(C)c5O)[C@H](C)O4)[C@@H](C)O2)C(=O)C(C(C)=O)=C(O)[C@@]1(O)C3=O`: 2.63 µM; for `CCN1CCN(C(=O)CCCN(c2ccccc2)S(C)(=O)=O)CC1`: > 50 µM (inactive). Under `CCOC(=O)c1ccc(NC(=O)c2cnc(N3CCOCC3)nc2)cc1` stands > 50 µM (inactive); under `O=C(Cn1ncc2c(N3CCCCCC3)ncnc21)NCc1ccccc1`, > 50 µM (inactive); under `CCn1c(SCC(=O)N2c3ccccc3CC2C)nnc1-c1ccc2c(c1)OCCO2` (configuration not stated), > 50 µM (inactive). Consider `C[C@H](NC(=O)Cc1ccccc1F)c1nc2cc(-c3ccccc3F)ncn2n1`, for which the IC50 was > 50 µM (inactive).

Consider `CC(C)(C)c1cc(CCC(=O)Nc2c3c(nc4c2CCC4)CCCC3)cc(C(C)(C)C)c1O`, for which the IC50 is > 50 µM (inactive).

As for `O=C(CC(C(=O)Nc1ccc2c(c1)OCO2)C(=O)c1ccccc1)Nc1ccc(Cl)cc1F` (configuration not stated), the IC50 was 15.4 µM. Consider `O=c1[nH]c(C2CCN(S(=O)(=O)c3ccc(S(=O)(=O)NC4CCCC4)cc3)CC2)nc2c1nnn2Cc1cccc(Cl)c1`, for which the IC50 is > 50 µM (inactive). Under `O=C(c1ccc2cc[nH]c2c1)N1CCC(Nc2cccnc2)C1` (configuration not stated) stands > 50 µM (inactive).

As to `N#C/C(=C\c1ccc(-c2cc(Cl)ccc2Cl)o1)c1nnc2n1CCCCC2`, the IC50 is > 50 µM (inactive). For the compound `Cc1cc(C(=O)CSc2nc3ccccc3[nH]2)c(C)n1Cc1ccco1`, the IC50 was > 50 µM (inactive). For `O=C(c1cc2ccccc2o1)N1CC=C(c2ccccc2)CC1`, the IC50 is > 50 µM (inactive). As for `CCCCc1nc2sc3c(NCCN4CCOCC4)ncnc3c2c2c1CCC2`, the IC50 is > 50 µM (inactive). With `Cc1ccc(C(C)C)cc1OCCOCCN1CCNCC1`, the IC50 was > 50 µM (inactive). For the compound `Cc1ccc(C)c(Nc2cc(C)nc3nc(-c4ccco4)nn23)c1`, the IC50 was > 50 µM (inactive).

Consider `COc1ccccc1-n1nnc(C(=O)Nc2ccc(Oc3ccccc3)cc2)c1C`, for which the IC50 was > 50 µM (inactive). For `Cc1ccc2[nH]c3c(=O)n(CC4CCCO4)cnc3c2c1` (configuration not stated), the IC50 is 44.9 µM. As for `CC(C)Cc1nc2sc3c(NCc4ccccc4)ncnc3c2c2c1COC(C)(C)C2`, the IC50 was 31.9 µM. As for `Cc1cc(-c2cnc(N(C)C)nc2-c2ccc(CNC(=O)Cc3ccc(F)cc3)cc2)on1`, the IC50 was > 50 µM (inactive). The same measure for `Cc1ccc(CNC(=O)c2cnc3ccccc3n2)cc1`: > 50 µM (inactive); for `CC1(C)CC(n2[nH]c(=O)c3c2NC(=O)CSC3c2ccc(OCc3ccccc3)cc2)CCO1` (configuration not stated): 22.4 µM. Under `C=C1CCC2[C@](C)(CCC[C@]2(C)C(=O)OC)[C@H]1CCc1ccoc1C[N+](C)(C)Cc1ccccc1` (some centres not stated) stands > 50 µM (inactive); under `N#Cc1c(Cl)cccc1Oc1ccc(S(=O)(=O)N2CCC(O)CC2)cc1`, 21.3 µM; under `CN(C)CCc1cc2c(c3c1ccc1ccccc13)OCO2`, > 50 µM (inactive).

For the compound `COc1ccc(NC(=O)c2nnn(-c3ccccc3F)c2C)cc1OC`, the IC50 is > 50 µM (inactive).

`Cn1cccc1C(=O)N1CCCC2(C1)Nc1cccnc1NC2=NC1CCCC1` (configuration not stated): the IC50 is > 50 µM (inactive). In the case of `CCOC(=O)c1ccc(NC(=O)COc2cccc3c2CCN(CC)C3=O)cc1`, the IC50 was > 50 µM (inactive). Under `O=C(c1ccc2occc2c1)N1CCC(S(=O)(=O)c2ccc(-c3ccco3)cc2)CC1` stands > 50 µM (inactive).

`CCOC(=O)C1C(c2ccc(Br)cc2)C2(C(=O)c3ccccc3C2=O)C2C=Cc3ccccc3N12` (configuration not stated): the IC50 was > 50 µM (inactive). For the compound `COc1ccc(N2C(=O)[C@@H]3[C@H]4c5ccccc5C=CN4C(C(=O)Nc4ccc5c(c4)OCO5)[C@@H]3C2=O)cc1` (some centres not stated), the IC50 was > 50 µM (inactive). For the compound `N#Cc1cccc(NC(=O)Cn2cccc(-c3nc(-c4ccccc4)no3)c2=O)c1`, the IC50 is > 50 µM (inactive). Take `COc1ccc(CCNC(=O)CSc2cn(CCNC(=O)c3ccc(F)cc3)c3ccccc23)cc1OC`: the IC50 was 37.7 µM.

Regarding `CCn1cc(-c2cc(C(=O)Nc3cnn(Cc4cccc(F)c4)c3)c3ccccc3n2)cn1`, the IC50 is > 50 µM (inactive). Consider `CCC(C)NC(=O)Cn1c(=O)n(-c2ccccc2)c(=O)c2ccc(C(=O)NCc3ccco3)cc21` (configuration not stated), for which the IC50 was 35.4 µM.

With `CC(C)NC(=O)[C@H](Cc1ccccc1)NC(=O)N1CCn2c1nc1ccccc12`, the IC50 is > 50 µM (inactive).
